Results as given in US8486931B2, “Substituted oxindole compounds” (Abbott GmbH & Co. KG, priority 2007, dated 2013).
Counter-ions that a name gives are not always drawn.

The compounds below were run against T1, human vasopressin V1b receptor (Homo sapiens, UniProt P47901) (assay: Vasopressin V1b receptor binding assay). Settings: membranes from CHO-K1 cells with stably expressed human V1b receptors, 1.5 nM 3H-AVP displacement; with more than one stereogenic center: the diastereomer with stronger affinity.
T1 construct: expressed in transfected cells; host or cells: CHO-K1 (cell line hV1b-3H2_CHO), membrane preparation
T1 sequence (P47901 1-424): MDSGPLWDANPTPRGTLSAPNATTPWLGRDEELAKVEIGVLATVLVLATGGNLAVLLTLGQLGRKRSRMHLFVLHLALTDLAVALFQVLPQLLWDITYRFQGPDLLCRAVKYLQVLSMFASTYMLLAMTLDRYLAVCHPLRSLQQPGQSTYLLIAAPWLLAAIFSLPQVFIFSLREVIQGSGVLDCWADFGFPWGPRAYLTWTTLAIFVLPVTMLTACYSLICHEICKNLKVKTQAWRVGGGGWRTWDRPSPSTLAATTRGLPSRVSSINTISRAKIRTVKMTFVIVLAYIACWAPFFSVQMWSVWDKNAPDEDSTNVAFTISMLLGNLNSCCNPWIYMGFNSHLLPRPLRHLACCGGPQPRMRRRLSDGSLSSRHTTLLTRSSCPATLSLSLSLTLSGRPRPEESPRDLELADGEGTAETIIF
Method: Such compounds can be investigated in suitable assays which establish the affinity to a receptor, with the affinity constant Ki represening a measure of the potency of the compounds and a smaller value representing a larger potency. The compounds of the invention were tested in the following receptor binding assay for their affinity for the V1 b receptor.
Vasopressin V1 b Receptor Binding Assay:
The test substances were dissolved in a concentration of 10^−2 M in DMSO (dimethyl sulfoxide) and further diluted to 5×10^−4 M to 5×10^−9 M in DMSO. This series of DMSO predilutions was diluted 1:10 with assay buffer. The substance concentration was again diluted 1:5 in the assay mixture (2% DMSO in the mixture).
The membrane pellet was again homogenized and centrifuged as described and then taken up in 50 mM Tris-HCl, pH 7.4, homogenized and stored in aliquots frozen in liquid nitrogen at −190° C.
The incubation buffer was: 50 mM Tris, 10 mM MgCl2, 0.1% BSA, pH 7.4.
The nonspecific binding was determined with 1 μM AVP (Bachem #H1780). All determinations were carried out as triplicate determinations. After incubation (60 minutes at room temperature), the free radioligand was removed by vacuum filtration (Skatron cell harvester 7000) through Whatman GF/B glass fiber filter mats, and the filters were transferred into scintillation vials. The liquid scintillation measurement took place in a Tricarb model 2000 or 2200CA instrument (Packard). Conversion of the measured cpm into dpm was carried out with the aid of a standard quench series.
The binding parameters were calculated by nonlinear regression in SAS.
The above assay was used to measure the affinities of the compounds of the invention for the human vasopressin V1 b receptor and to determine with affinity constants (Ki).
CCOc1cc(F)ccc1C1(N2CCN(c3ccncc3)CC2)C(=O)N(S(=O)(=O)c2ccc(OC)c3cccnc23)c2ccc(C#N)cc21 (racemic) [Example 31, (±)-5-Cyano-3-(2-ethoxy-4-fluorophenyl)-1-(5-methoxyquinoline-8-sulfonyl)-3-(4-pyridin-4-ylpiperazin-1-yl)-2,3-dihydro-1H-indol-2-one] showed a Ki of 10 to 50 nM. For CCOc1cc(OC)ccc1C1(N2CCC(N3CCNCC3)CC2)C(=O)N(S(=O)(=O)c2ccc(OC)cn2)c2ccc(C#N)cc21 (single isomer, unassigned; (+)) [Example 142, (+)-5-Cyano-3-(2-ethoxy-4-methoxy-phenyl)-1-(5-methoxy-pyridine-2-sulfonyl)-3-(4-piperazin-1-yl-piperidin-1-yl)-2,3-dihydro-1H-indol-2-one], the Ki was under 10 nM. Compound CCOc1ccc(OC)cc1C1(N2CCN(c3ccncc3)CC2)C(=O)N(S(=O)(=O)c2ccc(OC)cn2)c2ccc(C#N)cc21 (single isomer, unassigned; (+)) [Example 163, (+)-5-Cyano-3-(2-ethoxy-5-methoxy-phenyl)-1-(5-methoxy-pyridine-2-sulfonyl)-3-(4-pyridin-4-yl-piperazin-1-yl)-2,3-dihydro-1H-indol-2-one] has a Ki of under 10 nM. In the case of CCOc1nc(Cl)ccc1C1(N2CCCN(c3ccncc3)CC2)C(=O)N(S(=O)(=O)c2ccc(OC)c3cccnc23)c2ccc(C#N)cc21 (racemic) [Example 71, (±)-5-Cyano-3-(6-chloro-2-ethoxypyridin-3-yl)-1-(5-methoxyquinoline-8-sulfonyl)-3-(4-pyridin-4-yl-[1,4]diazepan-1-yl)-2,3-dihydro-1H-indol-2-one], the Ki is reported as 10 to 50 nM. “(±)-5-Cyano-3-(2-ethoxy-5-methoxyphenyl)-3-[4-(2-ethylpyridin-4-yl)piperazin-1-yl]-1-(quinoline-8-sulfonyl)-2,3-dihydro-1H-indol-2-one [Example 58]” showed a Ki of under 10 nM. In the case of CCOc1ccccc1C1(N2CCN(c3ccncc3)CC2)C(=O)N(S(=O)(=O)c2cccc3cccnc23)c2ccc(C#N)cc21 (racemic) [Example 38, (±)-5-Cyano-3-(2-ethoxyphenyl)-3-(4-pyridin-4-ylpiperazin-1-yl)-1-(quinoline-8-sulfonyl)-2,3-dihydro-1H-indol-2-one], the Ki is reported as 10 to 50 nM. With CCOc1cc(OC)ccc1C1(N2CCN(c3ccnc(C)c3)CC2)C(=O)N(S(=O)(=O)c2ccc(OC)cn2)c2ccc(C#N)cc21 (racemic) [Example 178, (±)-5-Cyano-3-(2-ethoxy-4-methoxy-phenyl)-1-(5-methoxy-pyridine-2-sulfonyl)-3-[4-(2-methyl-pyridin-4-yl)-piperazin-1-yl]-2,3-dihydro-1H-indol-2-one] the Ki was 10 to 50 nM. CCOc1cc(F)ccc1C1(N2CCN(c3ccnc(C)c3)CC2)C(=O)N(S(=O)(=O)c2ccc(OC)cn2)c2ccc(C#N)cc21 (racemic) [Example 144, (±)-5-Cyano-3-(2-ethoxy-4-fluoro-phenyl)-1-(5-methoxy-pyridine-2-sulfonyl)-3-[4-(2-methyl-pyridin-4-yl)-piperazin-1-yl]-2,3-dihydro-1H-indol-2-one] gave a Ki of under 10 nM. With CCOc1ccc(OC)cc1C1(N2CCN(c3ccncc3)CC2)C(=O)N(S(=O)(=O)c2ccc(C)cn2)c2ccc(C#N)cc21 (racemic) [Example 47, (±)-5-Cyano-3-(2-ethoxy-5-methoxyphenyl)-1-(5-methylpyridine-2-sulfonyl)-3-(4-pyridin-4-ylpiperazin-1-yl)-2,3-dihydro-1H-indol-2-one] the Ki was under 10 nM. COc1cccc(C2(N3CCN(c4ccncc4)CC3)C(=O)N(S(=O)(=O)c3cccc4cccnc34)c3ccc(Cl)cc32)c1OC (racemic) [Example 2, (±)-5-Chloro-3-(2,3-dimethoxyphenyl)-3-(4-pyridin-4-ylpiperazin-1-yl)-1-(quinoline-8-sulfonyl)-1,3-dihydroindol-2-one] gave a Ki of 10 to 50 nM. Work on CCOc1ccccc1C1(N2CCCN(c3ccncc3)CC2)C(=O)N(S(=O)(=O)c2ccc(OC)cn2)c2ccc(C#N)cc21 (racemic) [Example 78, (±)-5-Cyano-3-(2-ethoxyphenyl)-1-(5-methoxypyridine-2-sulfonyl)-3-(4-pyridin-4-yl-[1,4]diazepan-1-yl)-2,3-dihydro-1H-indol-2-one] yielded a Ki of 10 to 50 nM. Work on CCOc1ccc(OC)cc1C1(N2CCC(N3CCN(CC)CC3)CC2)C(=O)N(S(=O)(=O)c2ccc(OC)cn2)c2ccc(C#N)cc21 (racemic) [Example 145, (±)-5-Cyano-3-(2-ethoxy-5-methoxy-phenyl)-3-[4-(4-ethyl-piperazin-1-yl)-piperidin-1-yl]-1-(5-methoxy-pyridine-2-sulfonyl)-2,3-dihydro-1H-indol-2-one] yielded a Ki of 10 to 50 nM. CCOc1nc(Cl)ccc1C1(N2CCC(N3CCNCC3)CC2)C(=O)N(S(=O)(=O)c2ccc(OC)cn2)c2ccc(C#N)cc21 (racemic) [Example 182, (±)-5-Cyano-3-(6-chloro-2-ethoxy-pyridin-3-yl)-1-(5-methoxy-pyridine-2-sulfonyl)-3-(4-piperazin-1-yl-piperidin-1-yl)-2,3-dihydro-1H-indol-2-one] was tested, and the Ki was under 10 nM. With CCOc1ccccc1C1(N2CCN(c3ccncc3)CC2)C(=O)N(S(=O)(=O)c2ccc(C)c3cccnc23)c2ccc(C#N)cc21 (racemic) [Example 88, (±)-5-Cyano-3-(2-ethoxyphenyl)-1-(5-methylquinoline-8-sulfonyl)-3-(4-pyridin-4-yl-piperazin-1-yl)-2,3-dihydro-1H-indol-2-one] the Ki was 10 to 50 nM. Work on CCOc1ccccc1C1(N2CCN(c3ccncc3)CC2)C(=O)N(S(=O)(=O)c2ccccn2)c2ccc(C#N)cc21 (racemic) [Example 14, (±)-5-Cyano-3-(2-ethoxyphenyl)-1-(pyridine-2-sulfonyl)-3-(4-pyridin-4-yl-piperazin-1-yl)-2,3-dihydro-1H-indol-2-one] yielded a Ki of 10 to 50 nM. For CCOc1cc(F)ccc1C1(N2CCN(c3ccnc(C(C)C)c3)CC2)C(=O)N(S(=O)(=O)c2ccc(OC)cn2)c2ccc(C#N)cc21 (racemic) [Example 153, (±)-5-Cyano-3-(2-ethoxy-4-fluoro-phenyl)-3-[4-(2-isopropyl-pyridin-4-yl)-piperazin-1-yl]-1-(5-methoxy-pyridine-2-sulfonyl)-2,3-dihydro-1H-indol-2-one], the Ki was under 10 nM. Compound CCOc1ccccc1C1(N2CCN(c3ccnc(C)c3)CC2)C(=O)N(S(=O)(=O)c2cccc3cccnc23)c2ccc(C#N)cc21 (racemic) [Example 44, (±)-5-Cyano-3-(2-ethoxyphenyl)-3-[4-(2-methylpyridin-4-yl)piperazin-1-yl]-1-(quinoline-8-sulfonyl)-2,3-dihydro-1H-indol-2-one] has a Ki of 10 to 50 nM. For COc1ncccc1C1(N2CCN(c3ccncc3)CC2)C(=O)N(S(=O)(=O)c2cccc3cccnc23)c2ccc(C#N)cc21 (racemic) [Example 4, (±)-5-Cyano-3-(2-methoxypyridin-3-yl)-3-(4-pyridin-4-ylpiperazin-1-yl)-1-(quinoline-8-sulfonyl)-2,3-dihydro-1H-indol-2-one], the Ki was 10 to 50 nM. In the case of CCOc1ccc(OC)cc1C1(N2CCC(N3CCNCC3)CC2)C(=O)N(S(=O)(=O)c2ccc(OC)c3cccnc23)c2ccc(C#N)cc21 (racemic) [Example 87, (±)-5-Cyano-3-(2-ethoxy-5-methoxyphenyl)-1-(5-methoxyquinoline-8-sulfonyl)-3-(4-piperazin-1-ylpiperidin-1-yl)-2,3-dihydro-1H-indol-2-one hydrochloride], the Ki is reported as under 10 nM.
